Data as given in US10183944B2 (Asana Biosciences, LLC, priority 2011, dated 2019).

Tested on: Collagen Induced Arthritis (CIA) in female Lewis rats
Experiment: In vivo chronic study: Collagen Induced Arthritis (CIA)
Parameters: species or system rat
Conditions: 0.5 mg/Kg
Source text: Collagen Induced Arthritis (CIA) is a well characterized model of human rheumatoid arthritis (RA) that can be induced in susceptible animals following immunization with type II collagen (cII) in Freund's adjuvant. […] Pathophysiology of CIA consists of T cell component, as evidenced by increased infiltration of T-cells in joint synovium and also, by attenuation of CIA in T-cell deficient mice. CIA development involves B cell component too, as is evidenced by circulating cII antibody in disease animals and also, failure to develop the disease in xid mice/B cell deficient mice/CXCR5 null mice. […] See, Pine, “Inflammation and bone erosion are suppressed in models of rheumatoid arthritis following treatment with a novel Syk inhibitor”, Clin. Immunol., 2007, 124(3):244-57; Xiong cha, “Suppression of the onset and progression of collagen-induced arthritis in rats by QFGJS, a preparation from an anti-arthritic Chinese herbal formula”, J. Ethnopharmacology (2007) 110:39-48; and Stolina, “The evolving systemic and local biomarker milieu at different stages of disease progression in rat collagen induced arthritis”, Biomarkers (2008) 13(7-8):692-712, which are herein incorporated by reference.
Female Lewis rats (8 per group, 6-8 weeks old) were immunized on day 1 with type II collagen (Immunization grade Bovine type II; Chondrex; Cat #20021) emulsified with Complete Freund's Adjuvant (Sigma; Cat# F5881) at a final concentration of 1.2 mg/mL). For the initial immunization, the animals were injected at the base of the tail with 300 μg of the cII (0.25 mL/rat). A booster injection of the same type II collagen emulsified with Incomplete Freund's Adjuvant (Sigma, Cat #F5506) (0.25 mL/rat) was given to the animals on day 8 at the base of the tail (100 μg). The final cII concentration in the booster was […].
Animals with an arthritic score of ≥1 were grouped and dosing with test compound (30 mg/kg bid) or methotrexate (0.5 mg/kg) started between about day 12 to day 14, with daily dosing of their respective compounds continuing for 10 days.
Edema: Paw volumes are measured by Plethysmometry for the animals before induction of CIA (Basal readings) and on Day 1, 3, 6 and 9 of dosing period. Both hind paw volumes were measured and edema was calculated by subtracting from the basal mean.
Arthritic score: Animals were scored for the symptoms of arthritis every day starting from Day of onset of disease till the end of the study. Both the hind paws were scored and the total scores were averaged and compared with control. The scoring pattern was as follows:
The percent inhibition of Edema was calculated with respect to control by the formula: […]
The percent inhibition of Arthritic score was calculated with respect to control by the formula: […]
Means of different groups were compared with control using one way ANOVA followed by Dunnett's test. Significance is represented as follows.

SMILES: CN(Cc1cnc2nc(N)nc(N)c2n1)c1ccc(C(=O)N[C@@H](CCC(=O)O)C(=O)O)cc1 [Methotrexate, methotrexate, reference compound]
- Percent inhibition of Edema (Day 9 of dosing) (Day 9 of dosing): 6
- Percent inhibition of Arthritic score (Day 10 of dosing) (Day 10 of dosing): 15
